Measured values published in PMC10302146, “Dual Anta-Inhibitors Targeting Protein Kinase CK1δ and A2A Adenosine Receptor Useful in Neurodegenerative Disorders” (Molecules, 2023).

What was measured:
N13 cell line = assay: Griess assay, nitrite production (antioxidant effect); format: cell-based; details: for antioxidant activity (Griess Reagent System): compound 1 7500 nM, incubated for 1 hr, vs. ZM241385 10 nM
Text: In addition, since oxidative stress has received extensive attention as one important entry point in the pathogenesis of neurodegenerative diseases, the potential antioxidant profile of compounds 1 and 2 was investigated. Oxidative stress and neuroinflammation play synergistic roles in the promotion of neurodegenerative disease progression. During a CNS insult, there is an activation of microglial cells, which stimulate immune responses to instigate tissue repair. If the triggering cause of the immune response is eradicated, the immune response resolves, but if the initial stress persists, it will lead to an overproduction of neurotoxic factors such as chemokines and proinflammatory cytokines such as Tumor Necrosis Factor-α (TNF-α) and Interleukin-1β (IL-1β). This pathological state will lead to an overproduction of ROS and a state of oxidative stress. High levels of ROS inactivate or damage proteins, leading to cellular degeneration and death. Furthermore, ROS can activate proinflammatory pathways, further promoting a harmful environment for vulnerable neurons. In light of this, the potential antioxidant capacity of compounds was studied. […] The combination of anti-inflammatory and antioxidant activities makes compound 2 particularly appealing in counteracting two of the factors involved in the pathogenesis of neurodegenerative pathologies.
The N13 cell line was introduced into a 96-well UV-VIS transparent plate at a population of 1 × 10^4 cells per well in 98 μL of DMEM and incubated overnight. […] After 24 h of incubation, the media from each well was transferred into another 96-well plate, and then 50 µL of the sulphanilamide solution was placed into the wells. After 10 min of incubation at room temperature (rt), 50 µL of the NED solution was dispensed to all wells, and the plate was incubated at rt for an additional 5–10 min. After half an hour, absorbance was measured in the microplate reader GENiosPro using a 520–550 nm filter. All measurements were reproduced in 3–5 replicates. The nitric oxide formation was investigated by measuring nitrite (NO^2−), which is one of two primary breakdown products of NO. A nitrite standard reference curve was used for quantitative evaluation of the concentration of NO^2− in samples.

human recombinant A2AAR = target: human recombinant A2AAR; parameters: method as in PMID 37259317; details: [3H]NECA, membranes from CHO cells stably transfected; means ± standard errors; read-out: KiA2A; cited from earlier work
human recombinant A3AR = target: human recombinant A3AR; parameters: method as in PMID 37259317; details: [3H]HEMADO, membranes from CHO cells stably transfected; means ± standard errors; read-out: KiA3; cited from earlier work

SMILES | antioxidant activity (Griess Reagent System) (N13 cell line; compound 2 4500 nM) | Ki (human recombinant A2AAR) | Ki (human recombinant A3AR) | amount of nitrite produced vs. control (N13 cell line; 4500 nM) | compensation of oxidative stress caused by the CK cocktail (N13 cell line; compound 2 4500 nM, ZM241385 10 nM)
CN(C)c1nc(N)c2ncn(C3CCCC3)c2n1 [compound 1, 9-Cyclopentyl-N2,N2-dimethyl-9H-purine-2,6-diamine] | no significant antioxidant activity | 123 ± 2 nM | 2880 ± 695 nM | – | –
CN(C)c1nc(NCc2nc3ccccc3[nH]2)c2ncn(C3CCCC3)c2n1 [compound 2, N^6-methyl-(2-benzimidazolyl)-2-dimethyamino-9-cyclopentyladenine] | important antioxidant effect similar to that of the reference compound | 76.2 ± 173 nM | 1150 ± 107 nM | inferior to that revealed in the control | successfully compensated
